Active and inactive are the calls of the source.
Assays:
[1] = biological target: T1, Corticotropin-releasing factor receptor 2/Corticotropin-releasing factor-binding protein (Homo sapiens, UniProt P24387+Q13324); assay: Dose Response confirmation of uHTS hits for small molecule antagonists of the CRF-binding protein and CRF-R2 receptor complex.; format: functional; conditions: read-out: IC50_Mean
T1 sequence (Q13324 whole entry): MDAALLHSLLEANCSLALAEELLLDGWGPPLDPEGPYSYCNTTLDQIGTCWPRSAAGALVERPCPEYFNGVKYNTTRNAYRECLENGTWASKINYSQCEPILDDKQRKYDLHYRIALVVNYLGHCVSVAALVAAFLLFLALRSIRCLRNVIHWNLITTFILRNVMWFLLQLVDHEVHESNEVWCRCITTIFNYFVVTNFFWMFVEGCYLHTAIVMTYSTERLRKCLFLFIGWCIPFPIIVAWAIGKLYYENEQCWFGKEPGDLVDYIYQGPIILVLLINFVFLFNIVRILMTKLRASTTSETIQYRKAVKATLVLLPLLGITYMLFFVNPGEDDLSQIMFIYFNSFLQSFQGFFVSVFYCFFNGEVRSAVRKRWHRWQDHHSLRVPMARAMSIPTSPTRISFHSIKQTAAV
T1 sequence (P24387 whole entry): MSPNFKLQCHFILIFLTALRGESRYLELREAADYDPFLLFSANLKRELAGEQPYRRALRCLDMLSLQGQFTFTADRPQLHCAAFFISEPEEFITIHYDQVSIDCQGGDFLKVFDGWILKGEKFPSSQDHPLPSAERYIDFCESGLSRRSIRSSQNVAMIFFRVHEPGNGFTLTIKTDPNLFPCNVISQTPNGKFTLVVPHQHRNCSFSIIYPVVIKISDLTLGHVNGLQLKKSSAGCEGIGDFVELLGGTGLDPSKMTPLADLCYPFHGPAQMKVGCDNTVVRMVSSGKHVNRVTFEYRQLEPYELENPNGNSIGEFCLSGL

[2] = biological target: T1, Corticotropin-releasing factor receptor 2/Corticotropin-releasing factor-binding protein; assay: activators of CRF receptor 2 with binding protein – uHTS hits, confirmation (AID 602473); format: functional; conditions: read-out: EC50_Mean
[3] = test system: SN12K1; assay: cells; format: functional; conditions: Homo sapiens
[4] = test system: P388; assay: cells; format: functional; conditions: Mus musculus
[5] = test system: P388/ADR; assay: cells; format: functional; conditions: Mus musculus
[6] = biological target: Genome polyprotein (dengue virus type 2, UniProt P29990); assay: flavivirus cap methylation enzyme inhibition – biochemical, confirmation dose response, primary screen (AID 588689); format: functional
Sequence of Genome polyprotein (P29990 2492-3391 limits assumed): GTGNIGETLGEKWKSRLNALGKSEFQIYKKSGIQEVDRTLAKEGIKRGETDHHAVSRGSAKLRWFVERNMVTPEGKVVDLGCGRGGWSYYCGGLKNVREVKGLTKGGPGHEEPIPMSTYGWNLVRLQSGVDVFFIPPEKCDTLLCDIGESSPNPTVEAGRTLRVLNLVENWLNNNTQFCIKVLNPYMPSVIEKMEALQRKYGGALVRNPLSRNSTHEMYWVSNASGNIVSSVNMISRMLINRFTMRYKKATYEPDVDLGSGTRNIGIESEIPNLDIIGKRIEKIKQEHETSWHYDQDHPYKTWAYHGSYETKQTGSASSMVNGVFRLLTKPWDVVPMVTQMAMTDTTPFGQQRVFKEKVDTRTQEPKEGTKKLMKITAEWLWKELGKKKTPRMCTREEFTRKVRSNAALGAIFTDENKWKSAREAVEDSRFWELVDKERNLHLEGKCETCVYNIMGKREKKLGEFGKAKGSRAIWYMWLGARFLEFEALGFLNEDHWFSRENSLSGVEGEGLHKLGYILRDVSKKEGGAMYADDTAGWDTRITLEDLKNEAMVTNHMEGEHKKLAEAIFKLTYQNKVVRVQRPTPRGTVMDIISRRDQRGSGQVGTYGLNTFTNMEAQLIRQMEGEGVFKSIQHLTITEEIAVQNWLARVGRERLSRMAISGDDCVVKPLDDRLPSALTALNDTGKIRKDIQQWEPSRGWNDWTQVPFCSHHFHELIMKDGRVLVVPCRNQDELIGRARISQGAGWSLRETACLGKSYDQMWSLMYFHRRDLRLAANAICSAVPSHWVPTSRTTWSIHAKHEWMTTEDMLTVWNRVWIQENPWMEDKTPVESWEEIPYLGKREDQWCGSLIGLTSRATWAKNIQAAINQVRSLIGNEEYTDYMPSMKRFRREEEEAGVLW

[7] = biological target: T2, Carboxy-terminal domain RNA polymerase II polypeptide A small phosphatase 1 (Homo sapiens, UniProt Q9GZU7); assay: CTDSP1 inhibitors, concentration-response, biochemical, absorbance readout, ultra-high-throughput screen actives (AID 540297); format: functional
T2 sequence (Q9GZU7 whole entry): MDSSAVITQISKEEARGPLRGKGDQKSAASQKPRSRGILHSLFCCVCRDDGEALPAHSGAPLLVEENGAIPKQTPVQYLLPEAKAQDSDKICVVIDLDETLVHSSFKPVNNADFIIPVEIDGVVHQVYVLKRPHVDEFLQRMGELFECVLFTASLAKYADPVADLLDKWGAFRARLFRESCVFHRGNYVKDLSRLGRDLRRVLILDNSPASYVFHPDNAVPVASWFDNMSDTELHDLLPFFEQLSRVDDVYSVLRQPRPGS

[8] = cells; format: functional
[9] = Vero E6 cell cytotoxicity, dose response, cytotoxicity control for non-replicating M. tuberculosis project, secondary assay (AID 492998); format: functional, VeroE6; conditions: Vero C1008
[10] = THP-1 cell cytotoxicity, dose response, cytotoxicity control for non-replicating M. tuberculosis project (AID 489025); format: functional
[11] = biological target: Heat shock protein HSP 90-alpha (Homo sapiens, UniProt P07900); format: functional, organism-based
[12] = biological target: Large T antigen (Simian virus 40, UniProt P03070); format: functional, Betapolyomavirus macacae;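 further: Confirmatory-stage PubChem screen for compounds that inhibit SV40 T antigen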
Sequence of Large T antigen (P03070 whole entry): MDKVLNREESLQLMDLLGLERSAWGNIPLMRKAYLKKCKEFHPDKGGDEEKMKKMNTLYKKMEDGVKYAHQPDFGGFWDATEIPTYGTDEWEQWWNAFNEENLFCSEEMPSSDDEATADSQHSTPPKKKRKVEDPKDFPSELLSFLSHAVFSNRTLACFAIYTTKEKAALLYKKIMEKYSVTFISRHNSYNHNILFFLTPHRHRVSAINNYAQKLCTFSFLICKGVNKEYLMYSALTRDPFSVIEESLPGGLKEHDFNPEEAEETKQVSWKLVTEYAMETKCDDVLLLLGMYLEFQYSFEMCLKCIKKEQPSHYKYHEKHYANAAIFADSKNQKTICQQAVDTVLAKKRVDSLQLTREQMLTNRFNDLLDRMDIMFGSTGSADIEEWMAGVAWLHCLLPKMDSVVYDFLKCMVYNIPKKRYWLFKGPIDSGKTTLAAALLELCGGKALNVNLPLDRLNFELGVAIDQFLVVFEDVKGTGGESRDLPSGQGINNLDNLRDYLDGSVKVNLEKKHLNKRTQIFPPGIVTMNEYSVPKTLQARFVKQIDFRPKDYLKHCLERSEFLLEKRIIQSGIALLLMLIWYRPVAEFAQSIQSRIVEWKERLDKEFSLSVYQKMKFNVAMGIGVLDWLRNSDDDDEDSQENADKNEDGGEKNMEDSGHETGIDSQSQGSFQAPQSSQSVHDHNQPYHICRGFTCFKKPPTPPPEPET

| Compound | IC50 [1] | EC50 [2] | GI50 [3] | GI50 [4] | GI50 [5] | also measured |
| --- | --- | --- | --- | --- | --- | --- |
| COc1ccc(CCn2c(=O)c3cccnc3n(Cc3cccc([N+](=O)[O-])c3)c2=O)cc1OC | > 47.1 µM (inactive) | > 53 µM (inactive) | – | – | – | – |
| O=C(CC1=NCCN1)c1ccccc1 | – | – | > 750 µM (inactive) | > 750 µM (inactive) | 705 µM (inactive) | – |
| O=C1Nn2c(nc3c(c2=O)CCCC3)/C1=N/Nc1cccc(Cl)c1 | 19.2 µM (active) | > 53 µM (inactive) | – | – | – | IC50 [6]: 62.4 µM (active); IC50 [7]: 5.32 µM (active) |
| Cc1cccc(-c2nnc3sc(-c4ccccc4C)nn23)c1 | – | – | – | – | – | IC50 [8]: 34.6 µM (active); CC50 [9]: > 20 µM (active); CC50 [10]: 39 µM (active) |
| COc1cc2c(cc1NC(=O)COC(=O)CNC(=O)c1ccccc1)oc1ccccc12 | > 47.1 µM (inactive) | > 53 µM (inactive) | – | – | – | – |
| COc1cc(/C=C/C(=O)O)ccc1C(=O)OCc1ccccc1 | – | – | > 100 µM (inactive) | > 100 µM (inactive) | > 100 µM (inactive) | – |
| C=CCN(CC(=O)NCc1ccccc1)C(=O)c1csnn1 | > 47.1 µM (inactive) | > 53 µM (inactive) | – | – | – | – |
| Cc1ccc(C)c(-c2nnc(NC(=O)c3ccc([N+](=O)[O-])o3)o2)c1 | – | – | – | – | – | IC50 [8]: < 0.1 µM (active); CC50 [9]: 11.6 µM (active); CC50 [10]: 11.7 µM (active) |
| COc1cc(C2c3cc4c(cc3[C@@H](Oc3ccc(F)cc3)C3COC(=O)[C@H]23)OCO4)cc(OC)c1O (stereo not given in full) | – | – | 0.31 µM (active) | 0.327 µM (active) | 0.354 µM (active) | – |
| CNC(=O)C(C)C1CCC2(C)C=CC(=O)C(C)=C2C1O (stereo not given) | – | – | > 100 µM (inactive) | > 100 µM (inactive) | > 100 µM (inactive) | – |
| O=C1C=CC(=O)N1c1ccc(O)cc1 | – | – | – | – | – | AC50 [11]: 3.13 µM (active); IC50 [12]: 81 µM (active) |

— ChEMBL document CHEMBL1201862, “PubChem BioAssay data set” (2004)
